We go through two molecules from paper PMC8919667 (The Journal of Cell Biology, 2022).

In one experiment the target is T1, 6His-3FLAG-Cdc14 (Saccharomyces cerevisiae, UniProt Q00684).
T1 sequence (Q00684 1-551): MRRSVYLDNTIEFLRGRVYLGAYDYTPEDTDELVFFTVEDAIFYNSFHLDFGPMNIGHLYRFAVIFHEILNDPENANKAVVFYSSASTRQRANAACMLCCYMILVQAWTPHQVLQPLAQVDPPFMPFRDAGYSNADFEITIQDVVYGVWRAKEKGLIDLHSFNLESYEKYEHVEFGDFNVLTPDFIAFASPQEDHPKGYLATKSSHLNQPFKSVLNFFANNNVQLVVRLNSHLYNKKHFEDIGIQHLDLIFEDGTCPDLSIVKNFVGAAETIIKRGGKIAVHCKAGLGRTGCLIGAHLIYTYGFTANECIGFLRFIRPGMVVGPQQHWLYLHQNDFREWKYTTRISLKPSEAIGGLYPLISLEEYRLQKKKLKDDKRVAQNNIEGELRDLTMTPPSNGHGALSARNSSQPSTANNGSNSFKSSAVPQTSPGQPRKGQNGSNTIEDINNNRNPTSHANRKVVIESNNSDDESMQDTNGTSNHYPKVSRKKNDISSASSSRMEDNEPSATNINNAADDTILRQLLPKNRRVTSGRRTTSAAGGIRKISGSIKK
Put plainly: colorimetric p-nitrophenolate release, absorbance at […] nm. In kind it is biochemical. To be noted: 10 mM pNPP, 20 mM Tris pH 7.5, 4 mM MgCl2, 1 mM EGTA, room temperature.

A further experiment deals with T2, 3HA-Atg13-p PxL2m (S. cerevisiae, UniProt Q06628 1-738, PxL2m (A207-IG), phosphorylated (Atg13-p); residues not stated).
T2 sequence (looked up): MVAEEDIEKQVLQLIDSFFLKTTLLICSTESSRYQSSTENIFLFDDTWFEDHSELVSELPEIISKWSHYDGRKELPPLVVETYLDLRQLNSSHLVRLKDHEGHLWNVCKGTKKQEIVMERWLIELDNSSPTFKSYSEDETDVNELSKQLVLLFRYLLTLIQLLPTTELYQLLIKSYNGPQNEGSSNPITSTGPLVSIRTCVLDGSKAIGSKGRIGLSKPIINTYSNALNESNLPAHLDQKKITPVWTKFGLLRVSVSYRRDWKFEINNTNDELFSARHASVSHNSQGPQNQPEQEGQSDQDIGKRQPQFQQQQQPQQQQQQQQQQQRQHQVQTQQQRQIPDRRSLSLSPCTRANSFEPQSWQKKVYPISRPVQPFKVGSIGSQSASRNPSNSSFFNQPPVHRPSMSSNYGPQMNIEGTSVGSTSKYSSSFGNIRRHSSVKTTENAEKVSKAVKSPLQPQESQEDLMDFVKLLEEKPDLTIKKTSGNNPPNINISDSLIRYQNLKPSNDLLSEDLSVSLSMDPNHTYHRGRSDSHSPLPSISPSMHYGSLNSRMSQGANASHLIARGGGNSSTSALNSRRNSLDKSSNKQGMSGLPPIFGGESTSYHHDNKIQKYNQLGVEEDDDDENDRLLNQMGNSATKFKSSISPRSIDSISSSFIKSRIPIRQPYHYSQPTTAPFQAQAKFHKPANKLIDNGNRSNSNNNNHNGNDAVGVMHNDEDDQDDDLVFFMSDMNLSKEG
The experiment is described as follows: pull-down.

Changes are numbered by the printed parent chain. In names and notes the source's numbering stands.

With `O=[N+]([O-])c1ccc(OP(=O)(O)O)cc1` [p-nitrophenyl phosphate], the “colorimetric p-nitrophenolate release, absorbance at 405 nm” value at 6His-3FLAG-Cdc14 was 6His-3FLAG-Cdc14 exhibited concentration- and time-dependent phosphatase activity.

B1: 6His-3FLAG-Cdc14-C283S (enzyme, S. cerevisiae, UniProt Q00684 1-551, looked up)
chain: T1 sequence (Q00684 1-551) with C283S
As for B1, in the experiment with 3HA-Atg13-p PxL2m, the binding result is on record as “binds”.
